Row | SMILES | melting point
1 | CCNc1ccc(C(=O)Nc2ccc(OC)cc2)c(NC(=O)c2ccc(C(C)(C)C)cc2)c1 [Example 60a, 2-(4-tert-Butylbenzoylamino)-4-ethylamino-N-(4-methoxyphenyl)benzamide] | 205 to 207.5 °C
2 | COc1ccc(NC(=O)c2ccccc2NC(=O)c2ccc(C(C)(C)C)cc2)cc1 [Example 89, 2-(4-tert-Butylbenzoylamino)-N-(4-methoxyphenyl)benzamide] | 208 to 210 °C
3 | COc1ccc(C(=O)Nc2ccc(OC)cc2NC(=O)c2ccc(OC)cc2)cc1 [Example 155, 4-Methoxy-N^1,N^2-bis(4-methoxybenzoyl)-1,2-benzenediamine] | 238 to 239 °C
4 | COc1ccc(C(=O)Nc2cccc(O)c2NC(=O)c2ccc(OC)cc2)cc1 [Example 158, 2,3-bis[(4-Methoxybenzoyl)amino]phenol] | 208 to 209 °C

From patent US6605626B2, “Antithrombotic agents” (Eli Lilly and Company, priority 1997, dated 2003)
